ChEMBL document CHEMBL4837269, “Identification of 6-Hydroxypyrimidin-4(1H)-one-3-carboxamides as Potent and Orally Active APJ Receptor Agonists” (ACS Med Chem Lett, 2021)

Columns and labels:
[1] = biological target: T1, Apelin receptor (Homo sapiens, UniProt P35414); assay: Agonist activity at human APJ receptor expressed in HEK293T cells assessed as compound stimulated inhibition of forskolin stimulated cAMP production incubated for 30 mins by HTRF assay; type: functional, cell-based
T1 sequence (P35414 whole entry): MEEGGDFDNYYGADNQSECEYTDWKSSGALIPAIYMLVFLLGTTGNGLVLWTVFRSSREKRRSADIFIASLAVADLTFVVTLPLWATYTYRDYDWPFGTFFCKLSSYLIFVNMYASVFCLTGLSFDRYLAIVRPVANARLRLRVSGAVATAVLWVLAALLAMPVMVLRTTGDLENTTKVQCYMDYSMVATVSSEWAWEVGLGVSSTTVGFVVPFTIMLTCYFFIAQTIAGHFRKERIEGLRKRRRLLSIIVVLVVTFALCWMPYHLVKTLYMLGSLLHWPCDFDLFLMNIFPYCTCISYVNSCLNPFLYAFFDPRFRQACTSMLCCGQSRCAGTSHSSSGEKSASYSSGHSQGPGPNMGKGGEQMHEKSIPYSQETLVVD

[2] = biological target: T2, Apelin receptor (Rattus norvegicus, UniProt Q9JHG3); assay: Agonist activity at rat APJ receptor expressed in HEK293T cells assessed as compound stimulated inhibition of forskolin stimulated cAMP production incubated for 30 mins by HTRF assay; type: functional, cell-based
T2 sequence (Q9JHG3 whole entry): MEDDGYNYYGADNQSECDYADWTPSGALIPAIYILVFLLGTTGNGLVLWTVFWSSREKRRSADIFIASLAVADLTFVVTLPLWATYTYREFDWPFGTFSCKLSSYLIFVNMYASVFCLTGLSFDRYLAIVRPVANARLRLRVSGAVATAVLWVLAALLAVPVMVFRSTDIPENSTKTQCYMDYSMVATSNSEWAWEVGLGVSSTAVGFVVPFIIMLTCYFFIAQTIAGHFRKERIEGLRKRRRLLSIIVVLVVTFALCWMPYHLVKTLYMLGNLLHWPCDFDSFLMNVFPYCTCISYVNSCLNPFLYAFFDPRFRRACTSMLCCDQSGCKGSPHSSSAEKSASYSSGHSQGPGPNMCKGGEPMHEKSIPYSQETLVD

[3] = Metabolic stability in human liver microsomes assessed as parent compound remaining measured after 10 mins in presence of NADPH; type: ADME, Microsome; conditions: for percent parent compound remaining: microsomes, 10 min; for remaining at 10 min: liver microsomes, read-out: Stabilty
[4] = Metabolic stability in rat liver microsomes assessed as parent compound remaining measured after 10 mins in presence of NADPH; type: ADME, Microsome; conditions: for Stabilty: microsomes, 10 min; for remaining at 10 min: liver microsomes, read-out: Stabilty
[5] = Permeability of the compound at pH 5.5 by PAMPA assay; type: ADME; conditions: for Papp: read-out: permeability
[6] = Permeability of the compound at pH 7.4 by PAMPA assay; type: ADME; conditions: for Papp: read-out: permeability
[7] = Cmax in Sprague-Dawley rat at 1 mg/kg, po via gavage measured after 48 hrs by LC/MS/MS analysis; type: ADME, organism-based; parameters: route oral, time 48 hrs, dose 1 mg/kg; conditions: in vivo
[8] = AUC(0 to 24 hrs) in Sprague-Dawley rat at 1 mg/kg, po via gavage measured after 48 hrs by LC/MS/MS analysis; type: ADME, organism-based; parameters: route oral, dose 1 mg/kg, time 48 hrs; conditions: in vivo
[9] = Half life in Sprague-Dawley rat at 1 mg/kg, po via gavage measured after 48 hrs by LC/MS/MS analysis; type: ADME, organism-based; conditions: in vivo
[10] = tested on: Rattus norvegicus; assay: Hemodynamic activity in isoflurane-anesthetized Sprague-Dawley rat model of acute pressure-volume loop assessed as change in cardiac output at 10 microg/kg/min administered as iv infusion for 15 mins (reference value: 2.3 +/- 2.1 %); type: functional; conditions: dose 10 µg/kg/min, 0.25 h
[11] = tested on: Rattus norvegicus; assay: Hemodynamic activity in isoflurane-anesthetized Sprague-Dawley rat model of acute pressure-volume loop assessed as change in stroke volume at 10 microg/kg/min administered as iv infusion for 15 mins (reference value: -0.6 %); type: functional; conditions: dose 10 µg/kg/min, 0.25 h
[12] = tested on: Rattus norvegicus; assay: Hemodynamic activity in isoflurane-anesthetized Sprague-Dawley rat model of acute pressure-volume loop assessed as change in dp/dT at 10 microg/kg/min administered as iv infusion for 15 mins (reference value: 3.3 +/- […]); type: functional; conditions: dose 10 µg/kg/min, 0.25 h
[13] = tested on: Rattus norvegicus; assay: Hemodynamic activity in isoflurane-anesthetized Sprague-Dawley rat model of acute pressure-volume loop assessed as change in heart rate at 10 microg/kg/min administered as iv infusion for 15 mins (reference value: 3 +/- 1.6 %); type: functional; conditions: dose 10 µg/kg/min, 0.25 h
[14] = tested on: Rattus norvegicus; assay: Hemodynamic activity in isoflurane-anesthetized Sprague-Dawley rat model of acute pressure-volume loop assessed as change in blood pressure at 10 microg/kg/min administered as iv infusion for 15 mins (reference value: -0.2 %); type: functional; conditions: dose 10 µg/kg/min, 0.25 h
[15] = Protein binding in Sprague-Dawley rat plasma; type: ADME, cell-free; conditions: read-out: PPB (converted)
[16] = Free drug concentration in Sprague-Dawley rat plasma; type: ADME, cell-free

| Compound | EC50 [1] [nM] | EC50 [2] [nM] | Papp [6] [×10⁻⁶ cm/s] | remaining at 10 min [3] [%] | remaining at 10 min [4] [%] | Papp [5] [×10⁻⁶ cm/s] | other results |
| --- | --- | --- | --- | --- | --- | --- | --- |
| CCCCc1nc(=O)c(C(=O)N2CC[C@H](c3ccc(Cl)cn3)C2)c(O)n1-c1c(OC)cccc1OC | 0.032 | 0.063 | – | 100 | 35 | – | – |
| CCCCc1nc(=O)c(C(=O)N2CCC(c3ccc(Cl)cc3)C2)c(O)n1-c1c(OC)cccc1OC (stereo in doubt; 10b) | 0.24 | 0.31 | – | – | – | – | percent parent compound remaining [3]: 90%; Stabilty [4]: 8%; permeability [5]: 38 ×10⁻⁶ cm/s; permeability [6]: 6.3 ×10⁻⁶ cm/s |
| CCCCc1nc(=O)c(C(=O)N2CC[C@H](c3ccccc3)C2)c(O)n1-c1c(OC)cccc1OC | – | 0.27 | 1.2 | 85 | 25 | 52.3 | – |
| CCCCc1nc(=O)c(C(=O)N2CCC(c3ccncc3)C2)c(O)n1-c1c(OC)cccc1OC (stereo in doubt; 13b) | 2.7 | 4 | – | – | – | – | percent parent compound remaining [3]: 90%; Stabilty [4]: 80%; permeability [5]: 1.9 ×10⁻⁶ cm/s; permeability [6]: 0.5 ×10⁻⁶ cm/s |
| CCCCc1[nH]c(=O)c(C(=O)N2CC[C@@H](c3ccccc3)C2)c(O)c1-c1c(OC)cccc1OC | 1.8 | 3.1 | 7.3 | 100 | 69 | 63 | – |
| CCCCc1[nH]c(=O)c(C(=O)N(C)CCc2ccc(Cl)cc2)c(O)c1-c1c(OC)cccc1OC | 9.3 | 10 | – | – | – | – | – |
| CCCCc1nc(=O)c(C(=O)N2CCC(c3ccccn3)C2)c(O)n1-c1c(OC)cccc1OC (stereo in doubt; 11b) | 0.12 | 0.15 | 0.6 | – | – | – | Stabilty [4]: 62%; permeability [5]: 7.8 ×10⁻⁶ cm/s |
| CCCCc1nc(=O)c(C(=O)N2CCC(c3cccnc3)C2)c(O)n1-c1c(OC)cccc1OC (stereo in doubt; 12a) | 0.29 | 0.33 | – | 82 | 65 | 2.3 | – |
| CCCCc1[nH]c(=O)c(C(=O)N2CC[C@H](c3ccccc3)C2)c(O)c1-c1c(OC)cccc1OC | 1 | 1.8 | 1.8 | 99 | 73 | 84 | – |
| CCOCc1nc(=O)c(C(=O)N2CC[C@H](c3ccccc3)C2)c(O)n1-c1c(OC)cccc1OC | 0.44 | 0.61 | 0.3 | – | – | 6.4 | – |
| CCOCc1[nH]c(=O)c(-c2nnc(Cc3ccc(C)cn3)o2)c(O)c1-c1c(OC)cccc1OC | 0.023 | 0.024 | – | – | – | – | – |

More lines, main results first:

| EC50 [1] [nM] | EC50 [2] [nM] | Papp [6] [×10⁻⁶ cm/s] | remaining at 10 min [3] [%] | remaining at 10 min [4] [%] | Papp [5] [×10⁻⁶ cm/s] | Compound | other results |
| --- | --- | --- | --- | --- | --- | --- | --- |
| 0.3 | 0.4 | 0.1 | – | – | – | CCCCc1nc(=O)c(C(=O)N2CCC(c3cccnc3)C2)c(O)n1-c1c(OC)cccc1OC (stereo in doubt; 12b) | percent parent compound remaining [3]: 89%; Stabilty [4]: 70%; permeability [5]: 2.1 ×10⁻⁶ cm/s |
| 1.5 | 2.1 | 0.3 | 93 | 83 | – | CCCCc1nc(=O)c(C(=O)N2CCC(c3ccncc3)C2)c(O)n1-c1c(OC)cccc1OC (stereo in doubt; 13a) | permeability [5]: 0.9 ×10⁻⁶ cm/s |
| 0.17 | 0.37 | – | 82 | 68 | 4.2 | CCCCc1nc(=O)c(C(=O)N2CCC(c3ccccn3)C2)c(O)n1-c1c(OC)cccc1OC (stereo in doubt; 11a) | – |
| > 30000 | > 30000 | – | – | – | – | CCCCc1[nH]c(=O)c(C(=O)NCC)c(O)c1-c1c(OC)cccc1OC | – |
| 1100 | 1200 | – | – | – | – | CCCCc1[nH]c(=O)c(C(=O)N(C)C)c(O)c1-c1c(OC)cccc1OC | – |
| 120 | 150 | – | – | – | – | CCCCc1[nH]c(=O)c(C(=O)N(CCC)Cc2ccccc2)c(O)c1-c1c(OC)cccc1OC | – |
| 1100 | 4800 | – | – | – | – | CCCCc1[nH]c(=O)c(C(=O)NCc2ccccc2)c(O)c1-c1c(OC)cccc1OC | – |
| 0.027 | 0.035 | – | 100 | 43 | – | CCCCc1nc(=O)c(C(=O)N2CC[C@@H](c3ccc(Cl)cn3)C2)c(O)n1-c1c(OC)cccc1OC | Cmax [7]: 3.2 µM; AUC(0-t) at 48 h [8]: 1.9 µM·h; half-life [9]: 3.2 h; Activity [10]: 11.7%; Activity [11]: 67%; Activity [12]: 9.1%; Activity [13]: 4.6%; Activity [14]: -2.8%; fraction unbound [15]: 0.022; Cp(f) [16]: 0.0064 µM |
| – | 0.34 | 2.3 | 97 | 26 | 32.5 | CCCCc1nc(=O)c(C(=O)N2CC[C@@H](c3ccccc3)C2)c(O)n1-c1c(OC)cccc1OC | – |
| 0.15 | 0.17 | 7.4 | 97 | 7 | 30 | CCCCc1nc(=O)c(C(=O)N2CCC(c3ccc(Cl)cc3)C2)c(O)n1-c1c(OC)cccc1OC (stereo in doubt; 10a) | – |
